# In PMC8533176, “1,5-Benzodiazepin-2(3H)-ones: In Vitro Evaluation as Antiparkinsonian Agents” (Antioxidants, 2021):
# Columns and labels:
# SH-SY5Y cells [1] = experiment: Neuroprotection against H2O2-induced oxidative stress, MTT; settings: H2O2 250 µM 24 h; compounds 5-50 µM 24 h before; Figure 8
# SH-SY5Y cells [2] = experiment: Neuroprotection in the MPP+ neurotoxicity-induced model, MTT; assay type: cell-based, human; settings: MPP+ 700 µM 48 h; compounds 24 h before
# SH-SY5Y cells [3] = experiment: Lipid peroxidation (MDA, TBARS); assay type: cell-based, human; settings: 250 µM H2O2 24 h; 10 and 20 µM 24 h before
# Method: For MDA studies, 2 × 10^5 SH-SY5Y cells were seeded in 6-well culture plates. After 24 h, cells were treated with the test compound and incubated for another 24 h. After compound treatment, cells were exposed to H2O2 for 24 h. Then, the cells were washed twice with cold 50 mM PBS buffer, detached, and lysed with lysis buffer, and TBA was added to each sample tube and vortexed. The reaction mixture was incubated at 96 °C for 60 min. After incubation, samples were cooled and centrifuged 10 min at 10^4 rpm. Samples were dispensed in 96-well culture black clear bottom plates, and fluorescence was measured with a Varioskan microplate reader at λex = 540 nm and λem = 590 nm wavelengths. Protein concentration was measured by the Bradford protein assay. The levels of MDA were expressed as nmol/mg protein. Experiments were performed four times in triplicate.
# SH-SY5Y cells [4] = experiment: Cytotoxicity, MTT assay, SH-SY5Y; assay type: cell-based; settings: Homo sapiens, MTT, cytotoxicity, read-out: SH-SY5Y IC50
# Outline: (§1)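 Cells treated with 5–200 µM compound (DMSO vehicle, four replicates) after overnight attachment. Viability read by MTT reduction (2 h, 37 °C, dark; formazan in DMSO, A570) relative to vehicle controls; IC50 from dose–response regression.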
# SH-SY5Y cells [5] = experiment: GSH/GSSG ratio; assay type: cell-based, human; settings: H2O2 500 µM 6 h; 10 and 20 µM 24 h before
# Method: GSH and GSSG levels were determined by the method of Vikas et al. with slight modifications. In summary, 2 × 10^5 SH-SY5Ycells were seeded in 6-well culture plates. After 24 h, cells were treated with the test compound and incubated for another 24 h. […] Then, cells were washed twice with cold 50 mM PBS buffer, detached, lysed with lysis buffer, and split into two samples: one for GSH analysis and the other for GSSG determination. For GSH analysis, 20 µL of ortho-phthaldehyde (OPT) 20 mg/mL and 280 µL of monobasic potassium phosphate buffer were added per 100 µL of sample replicate. Samples were vortexed and centrifuged at 4 °C at 13,000× g for 10 min. Afterward, 100 µL of supernatant per well was transferred to a black 96-well culture plate with a clear bottom. Fluorescence was measured in a Varioskan plate reader (λex = 360 nm; λem = 420 nm). Sample GSH concentrations were calculated from a standard calibration curve made by serial dilutions of GSH from 0 to 50 µM. […] Fluorescence was measured in a Varioskan plate reader (λex = 360 nm; λem = 420 nm). Sample GSSG concentrations were calculated from a standard calibration curve made by serial dilutions of GSSG from 0 to 200 µM.
# [6] = ABTS radical scavenging assay; assay type: biochemical
# Method: The mixture was stored in the dark at room temperature for 16 h. […] All the compounds tested were dissolved in EtOH. […] The degree of decolorization was calculated as the percentage reduction of absorbance. […] Trolox was used as a reference antioxidant.
# HepG2 cells = experiment: Cytotoxicity, MTT assay, HepG2; assay type: cell-based; settings: Homo sapiens, HepG2; MTT, cytotoxicity; read-out: HepG2 IC50
# Outline: as §1
# SH-SY5Y cells [7] = experiment: Mitochondrial membrane potential (JC-1); assay type: cell-based, human; settings: 400 µM H2O2 4 h; compounds 24 h before at different concentrations
# Method: The fluorescent dye 5,5′,6,6′-tetrachloro-1,1′,3,3′-tetraethylbenzimidazolylcarbocyanine iodide (JC-1) was used for measuring MMP [89]. A decrease in fluorescence intensity represents mitochondrial membrane depolarization. For fluorescence ratio detection under oxidative stress conditions, 96-well culture black clear bottom plates were seeded with 3 × 10^3 SH-SY5Y cells, and after 24-h incubation, they were treated with the test compound and left out for 24 h. Then, the cells were exposed to different H2O2 concentrations for 4 h. After the incubation period, the cells were washed twice with Hanks buffer and then stained with 5 µM JC-1 in culture media in the dark in a CO2 incubator at 37 °C for 20 min. At the end of the dye incubation period, cells were washed three times with Hanks buffer, and 200 µL of fresh buffer was added. Cells were analyzed with a Varioskan microplate reader. J-aggregate red fluorescence intensity was measured at λex = 535 nm and λem = 595 nm, while λem = 485 nm and λem = 535 nm was used for J-monomer green fluorescence. Results were expressed as the ratio of fluorescence intensity of J-aggregates to J-monomers. All the experiments were performed three times in quadruplicate for each compound concentration.
smiles,measurement,setting,value
"O=C1CC(c2ccccc2)=Nc2ccccc2N1 [Compound 18, 4-Phenyl-1H-1,5-benzodiazepin-2(3H)-one]","Neuroprotection effect, cell viability (MTT)",SH-SY5Y cells [1],significantly improved
same,"Neuroprotection, cell viability (MTT), MPP+ model",SH-SY5Y cells [2],small significant neuroprotection at 1 and 2 µM
same,Effect on MDA levels,SH-SY5Y cells [3],significantly prevented
same,IC50,SH-SY5Y cells [4],> 250 µM
same,GSH/GSSG ratio,SH-SY5Y cells [5],"improved the GSH/GSSG ratios of cells under oxidative stress, although without statistical significance"
same,IC50,[6]; 30-min incubation,187 ± 15.2 µM
same,ABTS Assay TEAC50,[6]; Equivalent antioxidant capacity at Trolox 50 mM,0.36
same,ABTS Assay TEAC100,[6]; Equivalent antioxidant capacity at Trolox 100 mM,0.21
same,IC50,HepG2 cells,224 ± 35 µM
same,MMP recovery,SH-SY5Y cells [7],10–25%
